Measured values: US20210403485A1, “PYRAZOLOPYRIMIDINE DERIVATIVE AS SELECTIVE TRK INHIBITOR” (SHANDONG LUYE PHARMACEUTICAL CO., LTD., priority 2018, published 2021)
pIC50: −log10 of the molar value.

How the values were obtained:
[1] = Animal body weight and general observations, Ba/F3 ETV6-NTRK3 tumor-bearing nude mice
Description: (§4) The mice in groups were intragastrically administrated on the next day, and the animal body weight and the long and short diameters of the tumor were measured once every other day.

[2] = Animal body weight and general observations, Ba/F3 ETV6-NTRK3-G623R tumor-bearing nude mice
Description: as §4

[3] = molecular target: T1, Ba/F3 LMNA-NTRK1-F589L (Homo sapiens, UniProt P04629, F589L, cells depend on it); experiment: Inhibitory activity against cell proliferation (CellTiter-Glo, 72 hours); format: cell-based; conditions: read-out: Half maximal inhibitory concentration IC50 of cells, Ba/F3 LMNA-NTRK1-F589L
T1 construct: fused on or other part: N-terminal part of LMNA as fusion partner (part of the key); P02545 (Prelamin-A/C)
T1 sequence (P04629 whole entry F589L, the tested form may be a part): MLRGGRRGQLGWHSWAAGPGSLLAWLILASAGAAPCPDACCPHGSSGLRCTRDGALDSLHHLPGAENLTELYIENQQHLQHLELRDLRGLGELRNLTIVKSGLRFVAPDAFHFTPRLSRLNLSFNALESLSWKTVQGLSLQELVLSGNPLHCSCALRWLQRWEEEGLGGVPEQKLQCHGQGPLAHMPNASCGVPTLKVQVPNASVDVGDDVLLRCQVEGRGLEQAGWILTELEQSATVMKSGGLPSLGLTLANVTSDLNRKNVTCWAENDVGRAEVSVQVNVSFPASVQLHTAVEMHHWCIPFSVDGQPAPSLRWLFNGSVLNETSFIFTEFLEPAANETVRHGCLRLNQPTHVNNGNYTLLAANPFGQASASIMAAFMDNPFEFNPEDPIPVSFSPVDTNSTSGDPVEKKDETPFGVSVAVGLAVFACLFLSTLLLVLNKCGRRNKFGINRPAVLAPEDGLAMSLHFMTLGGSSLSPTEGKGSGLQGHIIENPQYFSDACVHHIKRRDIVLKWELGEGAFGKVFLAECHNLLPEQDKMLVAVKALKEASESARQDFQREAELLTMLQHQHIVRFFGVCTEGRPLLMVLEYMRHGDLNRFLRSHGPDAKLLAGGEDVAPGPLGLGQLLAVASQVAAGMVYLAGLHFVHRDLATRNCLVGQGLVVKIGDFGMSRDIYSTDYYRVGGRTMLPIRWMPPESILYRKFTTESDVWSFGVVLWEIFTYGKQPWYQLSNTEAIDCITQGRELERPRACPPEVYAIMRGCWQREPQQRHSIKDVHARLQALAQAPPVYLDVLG
Method in brief: (§1)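 Log-phase Ba/F3 cells (trypan blue viability above 90%) were treated in triplicate with a 9-point, 3-fold compound series. ATP-dependent luminescence was read after CellTiter-Glo addition, and IC50 values came from nonlinear sigmoidal dose-response fits.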

[4] = molecular target: T2, BaF3 LMNA-NTRK1-G667A (Homo sapiens, UniProt P04629, G667A, cells depend on it); experiment: as above; format: cell-based; conditions: read-out: Half maximal inhibitory concentration IC50 of cells, BaF3 LMNA-NTRK1-G667A
T2 construct: fused on or other part: N-terminal part of LMNA as fusion partner (part of the key); P02545 (Prelamin-A/C)
T2 sequence (P04629 whole entry G667A, the tested form may be a part): as the sequence (P04629 whole entry F589L, the tested form may be a part) above, with L589F, G667A counted along it
Method in brief: as §1

[5] = molecular target: T3, BaF3 ETV6-NTRK3-WT (Homo sapiens, UniProt Q16288); experiment: as above; format: cell-based; conditions: read-out: Half maximal inhibitory concentration IC50 of cells, BaF3 ETV6-NTRK3-WT
T3 construct: fused on or other part: N-terminal part of ETV6 (TEL) as fusion partner (part of the key); P41212 (Transcription factor ETV6)
T3 sequence (Q16288 whole entry, change not shown, the tested form may be a part): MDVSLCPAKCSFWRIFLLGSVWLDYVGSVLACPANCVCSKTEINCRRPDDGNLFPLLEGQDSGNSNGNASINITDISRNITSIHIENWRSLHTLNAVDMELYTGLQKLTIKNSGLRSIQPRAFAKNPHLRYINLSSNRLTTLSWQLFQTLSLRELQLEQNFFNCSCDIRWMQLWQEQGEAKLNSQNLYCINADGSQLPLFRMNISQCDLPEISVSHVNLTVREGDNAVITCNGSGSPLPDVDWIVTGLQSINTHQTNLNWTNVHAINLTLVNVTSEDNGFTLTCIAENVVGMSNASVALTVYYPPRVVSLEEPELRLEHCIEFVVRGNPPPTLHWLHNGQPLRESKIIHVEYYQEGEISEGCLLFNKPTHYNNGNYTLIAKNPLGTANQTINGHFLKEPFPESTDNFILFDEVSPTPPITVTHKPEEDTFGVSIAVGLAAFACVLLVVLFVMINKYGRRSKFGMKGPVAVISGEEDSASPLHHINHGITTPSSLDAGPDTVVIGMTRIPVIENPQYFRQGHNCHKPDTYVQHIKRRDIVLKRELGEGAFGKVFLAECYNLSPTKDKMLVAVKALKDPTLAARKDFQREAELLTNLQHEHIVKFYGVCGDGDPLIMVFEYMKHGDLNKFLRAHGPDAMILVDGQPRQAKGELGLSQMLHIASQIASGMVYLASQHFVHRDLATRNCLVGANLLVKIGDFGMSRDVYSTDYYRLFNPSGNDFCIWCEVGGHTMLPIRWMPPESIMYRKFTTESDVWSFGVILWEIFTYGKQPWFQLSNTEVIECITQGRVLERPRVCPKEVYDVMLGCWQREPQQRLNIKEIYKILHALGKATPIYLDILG
Method in brief: as §1

[6] = molecular target: T4, BaF3 LMNA-NTRK1-G595R (Homo sapiens, UniProt P04629, G595R, cells depend on it); experiment: as above; format: cell-based; conditions: read-out: Half maximal inhibitory concentration IC50 of cells, BaF3 LMNA-NTRK1-G595R
T4 construct: fused on or other part: N-terminal part of LMNA as fusion partner (part of the key); P02545 (Prelamin-A/C)
T4 sequence (P04629 whole entry G595R, the tested form may be a part): as the sequence (P04629 whole entry F589L, the tested form may be a part) above, with L589F, G595R counted along it
Method in brief: as §1

[7] = molecular target: T5, Ba/F3 LMNA-NTRK1-WT (Homo sapiens, UniProt P04629); experiment: as above; format: cell-based; conditions: read-out: Half maximal inhibitory concentration IC50 of cells, Ba/F3 LMNA-NTRK1-WT
T5 construct: fused on or other part: N-terminal part of LMNA as fusion partner (part of the key); P02545 (Prelamin-A/C)
T5 sequence (P04629 whole entry, change not shown, the tested form may be a part): as the sequence (P04629 whole entry F589L, the tested form may be a part) above, with L589F counted along it
Method in brief: as §1

[8] = Pharmacokinetic test of compounds in rats (plasma, LC/MS/MS); format: in vivo, male SD rats; conditions: for AUC(0-t): read-out: Area under the curve AUC0-last
Description: (§2) Experimental purpose: male SD rats aged 7-9 weeks were selected as test animals, and the drug concentrations of the compounds in plasma at different time points after single intravenous injection (IV) and intragastric administration (PO) of the compounds were measured by an LC/MS/MS method, so that the pharmacokinetic behavior of the compounds disclosed herein in rats was studied, and the pharmacokinetic characteristic of the compounds was evaluated.
(§3) Drug preparation: the compounds were all prepared into clear solution by taking 5% DMSO+10% solutol+85% water as vehicle, and were used for administration in IV and PO groups. The dose of each compound administered was: IV, 3 mg/kg; PO, 10 mg/kg.

[9] = Pharmacokinetic test of compounds in mice (plasma, LC/MS/MS); format: in vivo, male CD-1 mice; conditions: for AUC(0-t): read-out: Area under the curve AUC0-last
Description: as §2, with “CD-1 mice” for “SD rats”, “mice” for “rats”
as §3

[10] = molecular target: T6, TrkA (Homo sapiens, UniProt P04629); experiment: Kinase inhibitory activity (33P-ATP, filtration-binding method, Reaction Biology Corp.); format: biochemical
T6 construct: purchased Reaction Biology Corp
T6 sequence (P04629 33-796): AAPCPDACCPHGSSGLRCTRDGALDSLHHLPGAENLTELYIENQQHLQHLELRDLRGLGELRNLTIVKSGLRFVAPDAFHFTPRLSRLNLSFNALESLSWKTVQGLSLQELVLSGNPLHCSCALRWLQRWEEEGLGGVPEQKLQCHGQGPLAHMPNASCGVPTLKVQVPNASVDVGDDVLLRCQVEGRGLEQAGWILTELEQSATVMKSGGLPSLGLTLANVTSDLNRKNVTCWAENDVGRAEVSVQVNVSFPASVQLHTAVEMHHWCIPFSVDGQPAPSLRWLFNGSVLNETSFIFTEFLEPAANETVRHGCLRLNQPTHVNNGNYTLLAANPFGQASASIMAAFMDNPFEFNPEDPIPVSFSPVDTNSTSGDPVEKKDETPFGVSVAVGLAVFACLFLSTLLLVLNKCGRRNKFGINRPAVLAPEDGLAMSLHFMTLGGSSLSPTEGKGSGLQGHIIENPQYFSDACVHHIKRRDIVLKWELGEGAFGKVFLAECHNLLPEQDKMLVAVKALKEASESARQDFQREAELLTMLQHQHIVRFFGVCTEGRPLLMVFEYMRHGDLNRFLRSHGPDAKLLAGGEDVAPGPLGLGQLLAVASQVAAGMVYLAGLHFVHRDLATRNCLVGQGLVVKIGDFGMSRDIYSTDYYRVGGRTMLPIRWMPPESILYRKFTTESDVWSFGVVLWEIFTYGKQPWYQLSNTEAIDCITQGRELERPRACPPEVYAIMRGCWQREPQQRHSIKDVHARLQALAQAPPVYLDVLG
Method in brief: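 Radiometric kinase assay: enzyme-compound mixture preincubated 20 minutes at room temperature, then reaction started with ^33P-ATP and run 120 minutes at room temperature. Filtration-binding readout. Activity expressed relative to DMSO control; IC50 from fitted dose-response curves.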

In the case of `O=C1NC2(CC2)COc2ncc(F)cc2C2COCCN2c2ccn3ncc1c3n2` (single isomer, unassigned) [WX001B], the “Rate of change in body weight (%) of day 11 to day 0” value ([1]; 2.5 mg/kg bid) was 4.9%, the “Rate of change in body weight (%) of day 11 to day 0” value ([1]; 5 mg/kg bid) was 5.0% and the “Rate of change in body weight (%) of day 11 to day 0” value ([1]; 10 mg/kg bid) was 4.8%. For the same molecule, the “Rate of change in body weight (%) of day 11 to day 0” value ([1]; 20 mg/kg bid) was 5.1%, the Body weight ([1]; Day 0, 2.5 mg/kg bid) was 22.9 ± 1.6 g and the Body weight ([1]; Day 0, 5 mg/kg bid) was 23.5 ± 1.6 g. For the same molecule, the Body weight ([1]; Day 0, 10 mg/kg bid) was 23.3 ± 0.9 g, the Body weight ([1]; Day 0, 20 mg/kg bid) was 23.2 ± 1.9 g and the Body weight ([1]; Day 3, 2.5 mg/kg bid) was 24.2 ± 2.0 g. For the same molecule, the Body weight ([1]; Day 3, 5 mg/kg bid) was 25.5 ± 1.8 g, the Body weight ([1]; Day 3, 10 mg/kg bid) was 24.9 ± 0.7 g and the Body weight ([1]; Day 3, 20 mg/kg bid) was 25.1 ± 2.5 g. The Body weight ([1]; Day 5, 2.5 mg/kg bid) was 24.8 ± 1.8 g, the Body weight ([1]; Day 5, 5 mg/kg bid) was 26.4 ± 1.6 g and the Body weight ([1]; Day 5, 10 mg/kg bid) was 25.8 ± 0.7 g. The Body weight ([1]; Day 5, 20 mg/kg bid) was 26.2 ± 2.8 g, the Body weight ([1]; Day 7, 2.5 mg/kg bid) was 25.4 ± 2.0 g and the Body weight ([1]; Day 7, 5 mg/kg bid) was 27.5 ± 1.7 g. For the same molecule, the Body weight ([1]; Day 7, 10 mg/kg bid) was 26.3 ± 1.1 g, the Body weight ([1]; Day 7, 20 mg/kg bid) was 27.2 ± 2.7 g and the Body weight ([1]; Day 9, 2.5 mg/kg bid) was 25.5 ± 1.8 g. The Body weight ([1]; Day 9, 5 mg/kg bid) was 27.5 ± 2.3 g, the Body weight ([1]; Day 9, 10 mg/kg bid) was 26.4 ± 1.1 g and the Body weight ([1]; Day 9, 20 mg/kg bid) was 27.7 ± 2.9 g. For the same molecule, the Body weight ([1]; Day 11, 2.5 mg/kg bid) was 25.7 ± 1.9 g, the Body weight ([1]; Day 11, 5 mg/kg bid) was 27.8 ± 2.2 g and the Body weight ([1]; Day 11, 10 mg/kg bid) was 26.4 ± 1.4 g. For the same molecule, the Body weight ([1]; Day 11, 20 mg/kg bid) was 27.6 ± 3.5 g, the “General observations: survival” value ([1]; all animals in all dose groups) was “survived until the end of administration” and the “Tolerance (body weight course)” value ([1]; all dose groups, 2.5-20 mg/kg bid) was “good tolerance”. For the same molecule, the “Rate of change in body weight (%) of day 11 to day 0” value ([2]; 2.5 mg/kg bid) was 13.8%, the “Rate of change in body weight (%) of day 11 to day 0” value ([2]; 5 mg/kg bid) was 14.3% and the “Rate of change in body weight (%) of day 11 to day 0” value ([2]; 10 mg/kg bid) was 15.6%. For the same molecule, the “Rate of change in body weight (%) of day 11 to day 0” value ([2]; 20 mg/kg bid) was 8.8%, the “Tolerance (body weight course)” value ([2]; 2.5-20 mg/kg bid) was “good tolerance” and the Body weight ([2]; Day 0, 2.5 mg/kg bid) was 23.6 ± 1.7 g. The Body weight ([2]; Day 0, 5 mg/kg bid) was 24.4 ± 1.9 g, the Body weight ([2]; Day 0, 10 mg/kg bid) was 23.6 ± 2.2 g and the Body weight ([2]; Day 0, 20 mg/kg bid) was 24.1 ± 2.3 g. It also gave a Body weight ([2]; Day 3, 2.5 mg/kg bid) of 24.6 ± 1.7 g, a Body weight ([2]; Day 3, 5 mg/kg bid) of 25.7 ± 1.9 g and a Body weight ([2]; Day 3, 10 mg/kg bid) of 24.9 ± 2.1 g. It also gave a Body weight ([2]; Day 3, 20 mg/kg bid) of 25.9 ± 2.8 g, a Body weight ([2]; Day 5, 2.5 mg/kg bid) of 25.5 ± 1.8 g and a Body weight ([2]; Day 5, 5 mg/kg bid) of 26.5 ± 1.9 g. For the same molecule, the Body weight ([2]; Day 5, 10 mg/kg bid) was 26.3 ± 2.2 g, the Body weight ([2]; Day 5, 20 mg/kg bid) was 26.9 ± 2.9 g and the Body weight ([2]; Day 7, 2.5 mg/kg bid) was 26.1 ± 2.1 g. For the same molecule, the Body weight ([2]; Day 7, 5 mg/kg bid) was 27.1 ± 1.8 g, the Body weight ([2]; Day 7, 10 mg/kg bid) was 26.7 ± 2.2 g and the Body weight ([2]; Day 7, 20 mg/kg bid) was 26.6 ± 3.2 g. For the same molecule, the Body weight ([2]; Day 9, 2.5 mg/kg bid) was 26.5 ± 1.8 g, the Body weight ([2]; Day 9, 5 mg/kg bid) was 27.9 ± 1.9 g and the Body weight ([2]; Day 9, 10 mg/kg bid) was 26.8 ± 2.2 g. The Body weight ([2]; Day 9, 20 mg/kg bid) was 26.4 ± 3.5 g, the Body weight ([2]; Day 11, 2.5 mg/kg bid) was 26.8 ± 2.0 g and the Body weight ([2]; Day 11, 5 mg/kg bid) was 27.9 ± 2.6 g. The Body weight ([2]; Day 11, 10 mg/kg bid) was 27.3 ± 2.2 g, the Body weight ([2]; Day 11, 20 mg/kg bid) was 26.3 ± 3.9 g and the GI50 [3] was 7.7 nM. It also gave a GI50 [4] of 0.8 nM, a GI50 [5] of 2.6 nM and a GI50 [6] of 2.7 nM. The GI50 [7] was 0.6 nM, the “Apparent clearance Cl” value ([8]; IV, 3 mg/kg) was 19.7 mL/min/kg and the Vd ([8]; male, SD, rat, plasma, IV, 3 mg/kg, read-out: Apparent volume of distribution Vd) was 1.9 L/kg. For the same molecule, the AUC(0-t) ([8]; male, SD, rat, plasma, IV, 3 mg/kg) was 6.24 µM·h, the half-life ([8]; male, SD, rat, plasma, IV, 3 mg/kg, read-out: Half-life T1/2 (converted)) was 1.2 h and the AUC(0-t) ([8]; male, SD, rat, plasma, PO, 10 mg/kg) was 8.07 µM·h. The bioavailability ([8]; male, SD, rat, plasma, PO, 10 mg/kg, read-out: Bioavailability F %) was 39%, the Cmax ([8]; male, SD, rat, plasma, PO, 10 mg/kg, read-out: Peak concentration Cmax) was 1.8 µM and the “Apparent clearance Cl” value ([9]; IV, 3 mg/kg) was 7.33 mL/min/kg. The Vd ([9]; male, CD-1, mouse, plasma, IV, 3 mg/kg, read-out: Apparent volume of distribution Vd) was 0.77 L/kg, the AUC(0-t) ([9]; male, CD-1, mouse, plasma, IV, 3 mg/kg) was 16.6 µM·h and the half-life ([9]; male, CD-1, mouse, plasma, IV, 3 mg/kg, read-out: Half-life T1/2 (converted)) was 1.58 h. For the same molecule, the AUC(0-t) ([9]; male, CD-1, mouse, plasma, PO, 10 mg/kg) was 49.1 µM·h, the bioavailability ([9]; male, CD-1, mouse, plasma, PO, 10 mg/kg, read-out: Bioavailability F %) was 89% and the Cmax ([9]; male, CD-1, mouse, plasma, PO, 10 mg/kg, read-out: Peak concentration Cmax) was 12.2 µM. It also gave a pIC50 [10] of 8.62.
